# Data taken from patent US11547740B2, “Histone deacetylase (HDAC) inhibitor up-regulates car expression and targeted antigen intensity, increasing antitumor efficacy” (Baylor College of Medicine, priority 2013, dated 2023).
# What was measured:
# Type in all cases: cell-based, human
# [1] = system: CAPAN1 cells initially treated with CAR-MUC1 T cells; experiment: 72 hr co-culture of decitabine-treated resistant CAPAN1 cells with CAR-MUC1 T cells; settings: 1 μM for 4 days, then 72 hr co-culture, E:T 5:1
# Excerpt: Data is reported as the mean±SD; n=4. (b) To determine whether decitabine exposure would upregulate MUC1 expression in this resistant population we evaluated antigen expression, by flow, on CAR-resistant cells (grey histogram) and those cultured in decitabine (black histogram). To next assess whether decitabine treatment resensitized CAPAN1 cells to CAR-MUC1 T cells we performed a 72-hr co-culture experiment using CAPAN1 cells initially treated with CAR-MUC1 T cells (c) then either left untreated or cultured with decitabine as targets (E:T 5:1). After 72-hours retreatment with CAR-MUC1 T cells, residual tumor cells were again quantified by flow. Data is reported as the mean±SD; n=2.
# CAPAN1, 293T, 293T-MUC1-mOrange or 293T-PSCA-GFP, were used as targets. Briefly, GFP/CAPAN1 cells were mixed with either OKT3/CD28 blasts or CAR-modified T cells at a 1:5 ratio in the presence of IL2 (50 U/ml) in complete media. For our engineered tumor model, 293T-MUC1-mOrange and 293T-PSCA-GFP (or control 293T cells alone) were mixed at 1:1 ratio then OKT3/CD28 blasts or CAR-modified T cells were added to the mixture; 10:1 (T cells:tumor cell), in the presence of IL2 (50 U/ml) in complete media. After 72 hours all residual cells were collected, counted, stained and then analyzed by flow cytometry (Gallios; Beckman Coulter Inc., Brea, Calif.). […]
# [2] = system: MUC1 expression on CAR-MUC1-resistant CAPAN1 cells; experiment: MUC1 antigen expression by flow after decitabine treatment; settings: 1 μM, after 4 days of treatment; 3.5 before exposure
# Experimental: One million CAPAN1 cells were fixed with 80% methanol and washed with 0.1% tween-PBS. 1 ug of anti-MUC1 antibody (Abcam Inc, Cambridge, Mass.) was added and incubated at RT for 30 mins. Then cultures were washed and incubated with 0.4 ug of a goat anti-mouse IgG APC antibody (BD Pharmingen, San Jose, Calif.) for 20 mins at 4° C. in the dark. Cells were then washed twice and analyzed.
# CAPAN1 cells were culture in a T175 flask using complete IMDM media contained 1 μM 5-Aza-2′-deoxycytidine-decitabine-(Sigma-aldrich Inc., Saint Louis, Mo.) for 4 days, with fresh media+decitabine replenished daily. Subsequently, decitabine-treated CAPAN1 cells were rested for 2 days in complete IMDM, and then co-cultured with CAR-MUC1 T cells.
# Finally, to determine whether CAR-T cell potency could be improved by combination with conventional epigenetic modulators, which can increase TAA expression by demethylating DNA, CAPAN1 cells were cultured that had been previously treated with CAR-MUC1 T cells and consequently expressed only low levels of the target antigen, with 1 μM of decitabine, a hypomethylating agent.
# [3] = system: CAR-MUC1 expression on effector T cells; experiment: CAR expression on modified T cells cultured with decitabine; settings: after one day and several days
# Experimental: T cells were analyzed 3-4 weeks after the generation of the culture by surface-stained with monoclonal antibodies to: CD3, CD4, CD8, CD19, CD56, CD27, CD28, CD45RO, and CD62L (Becton Dickinson B D, Franklin Lakes, N.J.). Cells were washed once with PBS supplemented with 2% FBS, pelleted, and antibodies added in saturating amounts (10 ul). To detect CAR-transduced cells, T cells were stained with a monoclonal antibody Fc-specific cyanine-Cy5-conjugated antibody (Jackson Immuno Research Laboratories, Inc., West Grove, Pa.), which recognizes the IgG1-CH2CH3 component of the receptor. Cells were analyzed using a Gallios Flow cytometer and the data analyzed using Kaluza software (Beckman Coulter Inc., Brea, Calif.).
# It is illustrated therein that one can modulate the intensity of CAR-MUC1 expression on effector cells when the effector cells are cultured with decitabine.
smiles,measurement,setting,value
"Nc1ncn([C@H]2C[C@H](O)[C@@H](CO)O2)c(=O)n1 [decitabine, 5-Aza-2′-deoxycytidine]",re-sensitization of resistant tumor cells to CAR-MUC1 T cell killing,[1],re-sensitizing previously resistant tumor cells to CAR-MUC1 T cell killing
same,intensity of MUC1 expression,[2],26.0 relative mean fluorescence intensity
same,CAR-MUC1 expression on effector cells,[3],increase in expression
